# Results taken from ChEMBL document CHEMBL1201862, “PubChem BioAssay data set” (2004).
#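 Assay format: 96-well plates, 48-hour exposure. GI50 = concentration required for 50% inhibition of growth.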 Calls of active or inactive are those of the source. Rule as the data show it: active = GI50 up to about 1.1 µM and inactive = higher.
# How the values were obtained:
# Test in all cases: NCI-60 cell line screen, 48 h
# [1] = tested on: OVCAR-5
# [2] = tested on: MDA-MB-435
# [3] = tested on: A498
# [4] = tested on: 786-0
# [5] = tested on: MDA-N
# [6] = tested on: MOLT-4
# [7] = tested on: SK-MEL-28
# [8] = tested on: OVCAR-8
# [9] = tested on: TK-10
# [10] = tested on: EKVX
# [11] = tested on: SF-295
# [12] = tested on: K562
# [13] = tested on: U-251
# [14] = tested on: SW-620
# [15] = tested on: IGROV-1
# [16] = tested on: NCI-H460
# [17] = tested on: PC-3
# [18] = tested on: NCI-H23
# [19] = tested on: RPMI-8226
# [20] = tested on: SK-MEL-5
# [21] = tested on: UO-31
# [22] = tested on: SR
# [23] = tested on: HOP-92
# [24] = tested on: SN12C
# [25] = tested on: SK-MEL-2
# [26] = tested on: BT-549
# [27] = tested on: OVCAR-4
# [28] = tested on: LOX IMVI
# [29] = tested on: Malme-3M
# [30] = tested on: CCRF-CEM
# [31] = tested on: OVCAR-3
# [32] = tested on: Hs-578T
# [33] = tested on: HL-60
# [34] = tested on: HCC 2998
# [35] = tested on: SK-OV-3
# [36] = tested on: UACC-62
# [37] = tested on: NCI-H522
# [38] = tested on: A549
# [39] = tested on: RXF 393
# [40] = tested on: CAKI-1
# [41] = tested on: MCF7
# [42] = tested on: HCT-116
# [43] = tested on: NCI/ADR-RES
# [44] = tested on: COLO 205
# [45] = tested on: UACC-257
# [46] = tested on: M14
# [47] = tested on: HOP-62
# [48] = tested on: NCI-H226
# [49] = tested on: ACHN
# [50] = tested on: HT-29
# [51] = tested on: SNB-19
# [52] = tested on: DU-145
# [53] = tested on: HCT-15
# [54] = tested on: MDA-MB-231
# [55] = tested on: SF-268
# [56] = tested on: KM12
# [57] = tested on: SNB-75
# [58] = tested on: SF-539
structure (smiles),measurement,setting,value
C/C(=N/NC(=S)N(C)CCc1ccccn1)c1cnccn1,GI50,[1],0.516 µM (active)
same,GI50,[2],0.867 µM (active)
same,GI50,[3],17.7 µM (inactive)
same,GI50,[4],0.0977 µM (active)
same,GI50,[5],0.828 µM (active)
same,GI50,[6],< 0.01 µM (active)
same,GI50,[7],0.933 µM (active)
same,GI50,[8],< 0.01 µM (active)
same,GI50,[9],< 0.01 µM (active)
same,GI50,[10],< 0.01 µM (active)
same,GI50,[11],0.177 µM (active)
same,GI50,[12],< 0.01 µM (active)
same,GI50,[13],< 0.01 µM (active)
same,GI50,[14],< 0.01 µM (active)
same,GI50,[15],< 0.01 µM (active)
same,GI50,[16],0.047 µM (active)
same,GI50,[17],< 0.01 µM (active)
same,GI50,[18],< 0.01 µM (active)
same,GI50,[19],< 0.01 µM (active)
same,GI50,[20],0.0256 µM (active)
same,GI50,[21],< 0.0182 µM (active)
same,GI50,[22],0.018 µM (active)
same,GI50,[23],3.35 µM (inactive)
same,GI50,[24],< 0.01 µM (active)
same,GI50,[25],4.78 µM (inactive)
same,GI50,[26],0.398 µM (active)
same,GI50,[27],< 0.01 µM (active)
same,GI50,[28],< 0.01 µM (active)
same,GI50,[29],< 0.01 µM (active)
same,GI50,[30],< 0.0358 µM (active)
same,GI50,[31],< 0.01 µM (active)
same,GI50,[32],2.63 µM (inactive)
same,GI50,[33],< 0.01 µM (active)
same,GI50,[34],1.4 µM (inactive)
same,GI50,[35],0.0235 µM (active)
same,GI50,[36],0.0986 µM (active)
same,GI50,[37],< 0.01 µM (active)
same,GI50,[38],0.078 µM (active)
same,GI50,[39],0.465 µM (active)
same,GI50,[40],< 0.01 µM (active)
same,GI50,[41],< 0.01 µM (active)
same,GI50,[42],< 0.01 µM (active)
same,GI50,[43],< 0.01 µM (active)
same,GI50,[44],< 0.01 µM (active)
same,GI50,[45],< 0.015 µM (active)
same,GI50,[46],< 0.01 µM (active)
same,GI50,[47],< 0.0246 µM (active)
same,GI50,[48],< 0.01 µM (active)
same,GI50,[49],< 0.01 µM (active)
same,GI50,[50],< 0.01 µM (active)
same,GI50,[51],0.437 µM (active)
same,GI50,[52],0.378 µM (active)
same,GI50,[53],< 0.01 µM
same,GI50,[54],< 0.01 µM (active)
same,GI50,[55],< 0.01 µM (active)
same,GI50,[56],0.0406 µM (active)
same,GI50,[57],4.19 µM (inactive)
same,GI50,[58],0.118 µM (active)
Oc1ccc([I+]c2ccccc2)cc1O,GI50,[1],59.6 µM (inactive)
same,GI50,[2],23 µM (inactive)
same,GI50,[3],> 100 µM (inactive)
same,GI50,[4],65 µM (inactive)
same,GI50,[5],35.3 µM (inactive)
same,GI50,[6],21.9 µM (inactive)
same,GI50,[7],61.9 µM (inactive)
same,GI50,[8],53.3 µM (inactive)
same,GI50,[9],> 100 µM (inactive)
same,GI50,[10],53.3 µM (inactive)
same,GI50,[11],73.8 µM (inactive)
same,GI50,[12],21.6 µM (inactive)
same,GI50,[13],17.4 µM (inactive)
same,GI50,[14],18.1 µM (inactive)
same,GI50,[15],29.7 µM (inactive)
same,GI50,[16],23.3 µM (inactive)
same,GI50,[17],22.3 µM (inactive)
same,GI50,[18],26.3 µM (inactive)
same,GI50,[19],12 µM (inactive)
same,GI50,[20],36 µM (inactive)
same,GI50,[21],2.51 µM (inactive)
same,GI50,[22],19.1 µM (inactive)
same,GI50,[23],0.0583 µM (active)
same,GI50,[24],40.5 µM (inactive)
same,GI50,[26],8.36 µM (inactive)
same,GI50,[27],25.8 µM (inactive)
same,GI50,[28],30.3 µM (inactive)
same,GI50,[29],28.8 µM (inactive)
same,GI50,[30],9.46 µM (inactive)
same,GI50,[31],28.1 µM (inactive)
same,GI50,[32],48.6 µM (inactive)
same,GI50,[33],16 µM (inactive)
same,GI50,[34],23.9 µM (inactive)
same,GI50,[37],17.8 µM (inactive)
same,GI50,[38],24.9 µM (inactive)
same,GI50,[39],52.2 µM (inactive)
same,GI50,[40],> 100 µM (inactive)
same,GI50,[41],> 10 µM (inactive)
same,GI50,[42],34.4 µM (inactive)
same,GI50,[43],28.9 µM (inactive)
same,GI50,[44],34.4 µM (inactive)
same,GI50,[45],> 100 µM (inactive)
same,GI50,[47],34.2 µM (inactive)
same,GI50,[48],> 100 µM (inactive)
same,GI50,[49],36.8 µM (inactive)
same,GI50,[50],37.4 µM (inactive)
same,GI50,[51],26.2 µM (inactive)
same,GI50,[52],57.8 µM (inactive)
same,GI50,[53],27.7 µM
same,GI50,[54],46.7 µM (inactive)
same,GI50,[55],42.8 µM (inactive)
same,GI50,[56],24.8 µM (inactive)
same,GI50,[57],95.1 µM (inactive)
same,GI50,[58],29.2 µM (inactive)
